According to patent publication US7662961B2, “N-phenylpyrazole derivatives as pesticides” (Merial Limited, priority 2004, dated 2010):

## CN(C(=S)N(C)c1c([S+]([O-])C(F)(F)F)c(C#N)nn1-c1c(Cl)cc(C(F)(F)F)cc1Cl)c1c([S+]([O-])C(F)(F)F)c(C#N)nn1-c1c(Cl)cc(C(F)(F)F)cc1Cl (stereo not shown) [Compound 01-05, N,N′-Bis[3-cyano-1-(2,6-dichloro-4-trifluoromethylphenyl)-4-trifluoromethylsulfinylpyrazol-5-yl]-N,N′-dimethylthiourea]
  melting point: 118 °C
